“Also recorded” adds a separate entry of the source. Where no end group is shown, it is not given here.
Tests used:
GIPR = molecular target: T1, GIPR (Rattus norvegicus, UniProt P43219); test: pGloSensor-22F cAMP biosensor assay for GIPR agonism and antagonism in rat INS-1 cells; type: cell-based; design: dose or concentration left out as unconfirmed; settings: mixed with GIP(Ag)
T1 construct: endogenous in cells; host or cells: rat INS-1 insulinoma cells (with cAMP-luciferase reporter / pGloSensor-22F biosensor)
T1 sequence (P43219 19-455): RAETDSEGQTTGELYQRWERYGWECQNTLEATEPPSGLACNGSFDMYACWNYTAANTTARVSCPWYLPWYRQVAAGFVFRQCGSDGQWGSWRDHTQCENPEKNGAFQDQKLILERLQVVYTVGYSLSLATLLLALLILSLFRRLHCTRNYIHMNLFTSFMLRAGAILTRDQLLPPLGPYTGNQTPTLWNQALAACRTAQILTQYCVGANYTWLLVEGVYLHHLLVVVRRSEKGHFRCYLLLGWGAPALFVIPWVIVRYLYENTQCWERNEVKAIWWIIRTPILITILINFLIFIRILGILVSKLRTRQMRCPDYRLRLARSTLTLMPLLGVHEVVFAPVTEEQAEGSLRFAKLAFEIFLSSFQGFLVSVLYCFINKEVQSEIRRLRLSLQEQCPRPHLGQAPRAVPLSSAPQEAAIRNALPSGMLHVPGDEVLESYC
Description: A series of GIP antagonist peptides were evaluated at blocking human GIP (hGIP) agonism and the induction of cAMP. Briefly, rat INS-1 cells having pGloSensor-22F (Promega) were constructed and used to evaluate GIPR agonism and antagonism. […] The conformational change leads to the activation of the luciferase enzyme, thereby allowing detection of activation of GIPR, which produces cAMP upon activation.
To assay for GIPR agonism, rat INS-1 cells having pGloSensor-22F biosensor were treated with increasing concentrations of GIP(Ag). Immediately after the addition, the luminescence of the cells was measured, normalized using the basal luminescence and plotted.
GIPR antagonism was measured as the inhibition of GIP(Ag)-induced activation of the cAMP-luciferase reporter gene in rat INS-1 cells having pGloSensor-22F biosensor. The following GIP derivatives accessed in this assay for GIPR antagonism: GIP(Ant 3-30), GIP(Ant 3-30NH2), (GIP(Ant 3-30) having amidated carboxy terminus), GIP(AntPro3), GIP(AntPro3NH2), GIP(Ant3-30, Pro3) and GIP(Ant3-30, Pro3NH2). Briefly, rat INS-1 cells having pGloSensor-22F were treated with increasing doses of the above various GIP derivatives, mixed with […] GIP(Ag). Immediately after the addition, the luminescence of the cells was measured, normalized using the basal luminescence and plotted.
The GIP(Ag) was re-evaluated across a broader concentration range. Rat INS-1 cells having pGloSensor-22F biosensor were treated with increasing concentrations of GIP(Ag). Immediately after the addition, the luminescence of the cells was measured, normalized using the basal luminescence and plotted.
The GIP(AntPro3) and GIP(AntPro3NH2) were re-evaluated across a broader concentration range. Briefly, rat INS-1 cells having pGloSensor-22F were treated with increasing doses of GIP(AntPro3) and GIP(AntPro3NH2), mixed with […] GIP(Ag). Immediately after the addition, the luminescence of the cells was measured, normalized using the basal luminescence and plotted.

[1] = test system: HFD-fed mice (Male C57BL/6); test: glucose tolerance test (GTT) model in HFD-fed mice; type: in vivo; settings: for serum insulin time course following glucose administration: FIG. 7C; for serum glucose time course following glucose administration: i.v. treatment, 18 hours fast, 2 g/kg glucose, versus PBS control (200 to about 800 mg/dl), FIG. 7A
Description: Cages were changed once, then changed once a week.
The mice administered the above treatment by i.v. injections. The mice were then fasted for 18 hours and administered a dose of 2 g/kg glucose by i.v. injections. Blood samples were drawn by tail clip bleeding at 15, 30 and 60 minutes post dosing and cardiac bleeding was used at 2 hours after glucose injection as end-point.

[2] = test system: HFD-fed mice (Male C57BL/6); test: longer-term obesity model in HFD-fed mice; settings: for blood glucose levels: Days 0, 1, 10 and 15, compared to the untreated mice, FIG. 8E; for liver histology: hepatocellular ballooning and steatosis: H&E; for plasma insulin levels on Day 1: between 15 and 120 minutes after treatment, one way ANOVA p<0.05, FIG. 8C left panel; for average daily food intake: compared to the untreated mice, FIG. 8D; for liver weight: livers of PBS control mice versus treated mice / subcutaneous white adipose tissue (sWAT) weight: day 19 necropsy; for liver weight: livers of PBS control mice versus treated mice: FIG. 8G; for subcutaneous white adipose tissue (sWAT) weight: versus PBS control, FIG. 8H; for tolerability: obesity model; for plasma insulin levels on Day 15: one way ANOVA p<0.0001, FIG. 8C right panel; for change in body weight: tail vein dosing Day 0, 4, 7, 10, 14, 18, FIG. 8A
Excerpt: Briefly, mice (Male C57BL/6) were of approximately 13 weeks of age were housed 4 mice per cage. Following 2 weeks of acclimation, mice were introduced to 60% kcal HFD (Research Diets D12492). Cages were changed once, then changed once a week. Weekly body weights and non-fasted blood glucose were collected. […] The longer-term obesity model assesses a number of end points associated with obesity related type 2 diabetes (FIG. 6A).
Mice (Male C57BL/6) were of approximately 13 weeks of age were housed 4 mice per cage. Following 2 weeks of acclimatation, mice were introduced to 60% kcal HFD (Research Diets D12492). Cages were changed once, then changed once a week. Weekly body weights and non-fasted blood glucose were collected.
Mice were injected by tail vein with vehicle or the drugs on Day 0, Day 4, Day 7, Day 10, Day 14, and Day 18. Body weights were measured every 2 days. Change in body weight was calculated and plotted.
Cumulative food intake was measured between day 0 and 3, between day 4 and 7, between day 7 and day 11, and between day 11 and day 14, and represented as average daily food intake. For food consumption, remaining food was weighed on days 3, 8, and 15, and subtracted from the starting weight. This value was then normalized to the number of mice in the cage, and the number of days the mice had access to the food prior to weighing.
Blood glucose levels were measured on Days 0, 1, 10 and 15 and plotted.
On day 19 during terminal necropsy, liver and subcutaneous white adipose tissue were recovered weighed from treated animals.
To further analyze the changes in liver, histopathological analysis was conducted. Briefly, the liver tissue was stained with hematoxylin and eosin (H&E) and evaluated using standard techniques.

[3] = molecular target: T2, glucose-dependent insulinotropic polypeptide receptor (GIPR) (Homo sapiens, UniProt P48546); test: GeneBLAzer GIPR-CRE-bla HEK293T cell-based reporter assay; settings: increasing amounts, FIG. 3B
T2 construct: host or cells: HEK293T (GeneBLAzer GIPR-CRE-bla)
T2 sequence (P48546 22-466): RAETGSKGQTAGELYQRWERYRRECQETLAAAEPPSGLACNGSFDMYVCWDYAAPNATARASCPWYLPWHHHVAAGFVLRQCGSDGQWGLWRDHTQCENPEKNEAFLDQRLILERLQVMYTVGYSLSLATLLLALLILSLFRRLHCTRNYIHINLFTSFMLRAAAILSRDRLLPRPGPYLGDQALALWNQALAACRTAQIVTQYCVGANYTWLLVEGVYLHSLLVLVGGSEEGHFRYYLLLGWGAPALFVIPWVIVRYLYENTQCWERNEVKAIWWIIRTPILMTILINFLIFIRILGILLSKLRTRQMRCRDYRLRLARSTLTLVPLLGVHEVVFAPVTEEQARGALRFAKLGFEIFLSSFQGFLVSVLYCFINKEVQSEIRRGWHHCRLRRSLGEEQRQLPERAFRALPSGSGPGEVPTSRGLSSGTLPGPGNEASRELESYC
Description: This assay is diagrammatically represented in FIG. 3A. […] In the presence of the β-lactamase LiveBLAzer™ substrate, cells expressing β-lactamase fluoresce blue (460 nm), while those not expressing β-lactamase fluoresce green (530 nm); higher 460/530 ratio indicates the activation of GIPR.
Briefly, GeneBLAzer® GIPR-CRE-bla HEK293T cells were added to wells of black-wall assay plates. […] To each well, LiverBLAzer-FRET B/G substrate mixture was added. The plate was covered with plate sealer and incubated at room temperature for 2 hours in the dark. Fluorescence emission was measured on SpectraMax plate reader at 460 nm and 530 nm with excitation set to 409 nm. After subtraction of background, average value at 460 nm (blue color) was divided by average value at 530 nm (green color) to obtain the 460/530 ratio.

GIP receptor (GIPR) = molecular target: T3, GIP receptor (GIPR) (Rattus norvegicus, UniProt P43219); test: cAMP-Glo assay in rat insulinoma INS-1 cells harboring a cAMP-luciferase reporter gene; type: cell-based; settings: 1 hour glucose, then 2 hour incubation, FIG. 4A
T3 construct: endogenous in cells; host or cells: rat INS-1 insulinoma cells (with cAMP-luciferase reporter / pGloSensor-22F biosensor)
T3 sequence (P43219 19-455): T1 sequence (P43219 19-455)
Excerpt: Rat insulinoma INS-1 cells harboring a cAMP-luciferase reporter gene were used to study the activation of GIPR. Without wishing to be bound by theory, the activation of GIPR leads to temporary depletion of ATP because of consumption of ATP in cyclization reaction to produce cAMP as well as by phosphorylation by protein kinase A of its substrate. Without wishing to be bound by theory, the temporary depletion of ATP leads to an inhibition of luciferase activity, which needs ATP as a substrate.

[4] = broader concentration range, FIG. 5B

| Substance | inhibition of GIP(Ag)-induced activation of the cAMP-luciferase reporter gene (GIPR antagonism) (GIPR; [4]) | inhibition of GIP(Ag)-induced activation of the cAMP-luciferase reporter gene (GIPR antagonism) (GIPR; FIG. 5A) | serum insulin time course following glucose administration [1] | serum glucose time course following glucose administration [1] | glucose tolerance ([1]; summary of GTT model) | blood glucose levels [2] | weights of individual mice ([2]; FIG. 8B) | liver histology: hepatocellular ballooning and steatosis ([2]; FIG. 8J) | plasma insulin levels on Day 1 [2] | average daily food intake [2] | liver weight: livers of PBS control mice versus treated mice [2] | subcutaneous white adipose tissue (sWAT) weight [2] | tolerability [2] | plasma insulin levels on Day 15 [2] | decrease in liver collagen staining relative to tirzepatide or dulaglutide ([2]; picrosirius red, FIG. 8I) | liver collagen staining (fibrosis) ([2]; picrosirius red, FIG. 8I) | change in body weight [2] | liver histology: hepatocellular ballooning and steatosis ([2]; higher magnifications, compared to untreated animals, FIG. 8K) | 460/530 ratio, indicative of the activation of GIPR [3] | inhibition of luciferase (GIPR activation, cAMP accumulation) (GIP receptor (GIPR)) |
| --- | --- | --- | --- | --- | --- | --- | --- | --- | --- | --- | --- | --- | --- | --- | --- | --- | --- | --- | --- | --- |
| GIP(AntPro3): GIP antagonist peptide, SEQ ID NO: 97 (YAPGTFISDYSIAMDKIHQQDFVNWLLAQKGKKNDWKHNITQ) | dose-dependent inhibition of GIP(Ag)-induced activation | more potent inhibition of GIP agonist signaling than the others tested; also recorded: maximal level of a dose-dependent inhibition of GIP(Ag)-induced activation |  |  |  |  |  |  |  |  |  |  |  |  |  |  |  |  |  |  |
| GIP(AntPro3NH2): GIP antagonist peptide GIP(AntPro3), presumably having amidated carboxy terminus (YAPGTFISDYSIAMDKIHQQDFVNWLLAQKGKKNDWKHNITQ-NH2) | dose-dependent inhibition of GIP(Ag)-induced activation | more potent inhibition of GIP agonist signaling than the others tested; also recorded: maximal level of a dose-dependent inhibition of GIP(Ag)-induced activation |  |  |  |  |  |  |  |  |  |  |  |  |  |  |  |  |  |  |
| GLP-1-Fc-GIP(AntPro3): GLP-1 fused to GIP antagonist peptide (amino acids 1-42 having E3P mutation) via IgG1 hinge-CH2-CH3 Fc domain; SEQ ID NO: 95 |  |  | rapid induction of insulin | much smaller increase in serum glucose | improved glucose tolerance | decrease in blood glucose | induced weight loss | a decrease in hepatocellular ballooning and steatosis | rapid decrease in insulin levels | decrease in food intake | much heavier compared to the mice receiving treatments | decreased | well tolerated and no overt toxicities were noted | significant decrease in the levels of insulin | greater decrease in collagen staining | a decrease in collagen staining | progressive weight loss |  |  |  |
| dulaglutide [reference compound] |  |  |  |  |  | decrease in blood glucose |  | a decrease in hepatocellular ballooning and steatosis | rapid decrease in insulin levels | decrease in food intake | much heavier compared to the mice receiving treatments | decreased | well tolerated and no overt toxicities were noted | significant decrease in the levels of insulin |  | a decrease in collagen staining | progressive weight loss |  |  |  |
| tirzepatide [reference compound] |  |  | rapid induction of insulin | much smaller increase in serum glucose |  | decrease in blood glucose |  | a decrease in hepatocellular ballooning and steatosis |  | decrease in food intake | much heavier compared to the mice receiving treatments | decreased |  | significant decrease in the levels of insulin |  | a decrease in collagen staining | progressive weight loss | significant decrease in hepatocellular ballooning and steatosis | dose-dependent and saturable increase in 460/530 ratio | dose-dependent and saturable inhibition of luciferase with similar potency |
